Several values for one entry are separate records, joined by “and”; a condition that tells them apart may be missing. Equal entries are not always repeated. Where two headings read alike, the source gives them in different places.
How the values were obtained:
[1] = test system: FcγRI-mediated degranulation; experiment: FcγRI-mediated degranulation (anti-human IgG Fab activation); assay type: cell-based; settings: cells not primed with IgE, activated with rabbit anti-human IgG Fab fragment
[2] = Mouse Reverse Passive Arthus reaction (RPA reaction); assay type: in vivo, C57BL/6 mice; settings: oral
How it was run: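 C57BL/6 mice dosed with compound before challenge, pretreatment time set by each compound's PK; rabbit anti-OVA IgG (50 μg/mouse) given intradermally, then ovalbumin 20 mg/kg i.v. with 1% Evans blue. Dorsal skin edema and hemorrhage read by dye extravasation at 4 h; purified polyclonal rabbit IgG as control.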

Primary T-cells [3] = experiment: Primary T-cell cytokine production (αCD3/αCD28): IL-2; assay type: cell-based, human; settings: read-out: 1° T-Cell IL2 IC50
How it was run: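 Healthy-donor PBMC or rIL-2-expanded T cells, monocyte-depleted by adherence, […] in Yssel's medium with 1% human AB serum; compound preincubation 30 min at 37° C. Stimulated 18 hr on plate-bound 5 μg/ml αCD3 + 10 μg/ml αCD28; supernatant IL-2 by ELISA (450 nm, standard curve) or Luminex; IC50 versus solvent.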

Primary T-cells [4] = experiment: Primary T-cell cytokine production (αCD3/αCD28): TNF; assay type: cell-based, human; settings: read-out: 1° T-Cell TNF IC50
Procedure: (§1) 2E8-4E8 PBMC or proliferating T cells grown in rIL-2 from healthy human donors were suspended in PBS were spun down (1500 rpm, 8-10 minutes) and resuspended in 100 ml RPMI Complete media (1% Pen-Strep, 1% L-Glutamine, 10 mM HEPES). The cells were plated in T175 flasks (37° C., 5% CO2) and monocytes were allowed to adhere for 2-3 hours. After monocyte attachment, non-adherent cells were harvested, counted by hemocytometer, washed several times with PBS then resuspended in Yssels Complete Media (Modified IMDM Media with 1% Human AB Serum, 1% Pen-Strep, 1% L-Glutamine, 10 mM HEPES) at […]. 90 uL of the cell dilution were then added to compounds diluted to 2× in Yssel's media and incubated for 30 minutes at 37° C. (5% CO2). After this preincubation step the compound/cell mixture was transferred to stimulation plates, as described below.
(5% CO2) for at 3-5 hours. After incubation with the stimulation antibodies, the cocktail was removed and the plates washed 3 times with PBS prior to addition of the primary T cell/compound mixture.
(§2) The compound/cell mixture was transferred to the stimulation plates and incubated for 18 hr at 37° C. (5% CO2). After the cell stimulation, ˜150 μl supernatant were transferred from each well into 96-well filter plates (Coming PVDF Filter Plates) spun down (2000 rpm, 2-3 minutes) and either used immediately for ELISA or LUMINEX measurements or frozen down at −80° C. for future use.
(§3) Luminex immunoassay multiplexing for TNF, IL-2, GMSCF, IL-4 and IFNg was performed essentially as described by the manufacturer (Upstate Biotechnology). Essentially 50 uL of sample was diluted into 50 uL assay diluent and 50 uL incubation buffer, then incubated with 100 uL of the diluted detection antibody for 1 hr at RT in the dark. The filter plate was washed 2× in Wash Buffer, then incubated with 100 uL of the diluted secondary reagent (SAV-RPE) for 30 min at RT in the dark. Finally the plates were washed 3 times and bead identification and RPE fluorescent measured by the Luminex instrument.
(§4) Varied concentrations of compound were compared to solvent only to determine the inhibition of T-cell activation IC50 of each compound.

Primary T-cells [5] = experiment: Primary T-cell cytokine production (αCD3/αCD28): IL-4; assay type: cell-based, human; settings: read-out: 1° T-Cell IL4 IC50
Procedure: as §1
Stimulation plates were prepared by coating 96 well plates with 5 μg/ml αCD3 (BD PharMingen, Catalog #555336)+10 μg/ml αCD28 (Beckman Coulter, Catalog #IM1376) in PBS (no Ca^2+/Mg^2+) at 37° C. (5% CO2) for at 3-5 hours. After incubation with the stimulation antibodies, the cocktail was removed and the plates washed 3 times with PBS prior to addition of the primary T cell/compound mixture.
as §2, §3, §4

[6] = test system: bone marrow derived mast cells (BMMC); experiment: BMMC high cell density IgE activation: hexosaminidase; assay type: cell-based, mouse
[7] = test system: cultured human mast cells (CHMC); experiment: CHMC low cell density ionomycin activation: tryptase assay; assay type: cell-based
Syk kinase = molecular target: T1, Syk kinase (Homo sapiens, UniProt P43405); experiment: Syk kinase biochemical fluorescence polarization assay; settings: isolated Syk kinase, fluorescence polarization, 4 uM ATP
T1 construct: purchased Upstate, Lake Placid NY

[8] = 50 mg/kg, pretreatment time 1 hrs
[9] = 100 mg/kg, pretreatment time 1 hrs
[10] = 200 mg/kg, 60 minutes prior to challenge
[11] = 200 mg/kg, pretreatment time 1 hrs
[12] = High Density, read-out: BMMC anti-IgE hexos
[13] = Low Density CHMC, ionomycin activation, tryptase release, read-out: CHMC Ionomycin Tryptase IC50
[14] = 100 mg/kg, pretreatment time 0.5 hrs
[15] = 100 mg/kg, pretreatment time 0.5 hrs + 4 hours
[16] = 100 mg/kg, pretreatment time 1 hrs + 4 hours
[17] = 100 mg/kg, pretreatment time 2 hrs
[18] = 100 mg/kg, pretreatment time 2 hrs + 4 hours
[19] = low cell density, read-out: CHMC Ionomycin Tryptase
[20] = high cell density, read-out: BMMC anti-IgE Hexos.

Structure (SMILES)	inhibition of FcγRI-mediated degranulation [1]	% inhibition to vehicle control Edema Size ± SEM [2, 9]	IC50 (Primary T-cells [3]) [nM]	IC50 (Primary T-cells [4]) [nM]	IC50 (Primary T-cells [5]) [nM]	IC50 (Syk kinase) [nM]	% inhibition to vehicle control Edema Size ± SEM [2, 14] [%]	further results
CNC(=O)COc1cccc(Nc2ncc(F)c(Nc3ccc4c(c3)NC(=O)C(F)(F)O4)n2)c1 [Compound R921303]	inhibit FcγRI-mediated degranulation	80.5 ± 9.8% and 81.2%	1020	796	366			dose-dependent inhibition of edema formation ([2]; 50 mg/kg): 65.4%; % inhibition to vehicle control Edema Size ± SEM [2, 8]: 64.1 ± 13.3% and 65.4%; dose-dependent inhibition of edema formation ([2]; 100 mg/kg): 81.2%; dose-dependent inhibition of edema formation ([2]; 200 mg/kg): 100%; inhibition of edema formation [2, 10]: 100%; % inhibition to vehicle control Edema Size ± SEM ([2]; 200 mg/kg, pretreatment time 0.5 hrs): 100 ± 0%; Plasma Concentration ± SEM (ng/ml) Exposure = Pretreatment Time + 4 hours ([2]; 200 mg/kg, pretreatment time 0.5 hrs + 4 hours): 3703 ± 785 ng/mL; inhibition of edema formation ([2]; 200 mg/kg, pretreatment time 30 minutes): 100%; % inhibition to vehicle control Edema Size ± SEM [2, 11]: 100 ± 0% and 100%; % inhibition to vehicle control Edema Size ± SEM ([2]; 200 mg/kg, pretreatment time 2 hrs): 93.3 ± 4.4%; Plasma Concentration ± SEM (ng/ml) Exposure = Pretreatment Time + 4 hours ([2]; 200 mg/kg, pretreatment time 2 hrs + 4 hours): 2678 ± 496 ng/mL; inhibition of edema formation ([2]; 200 mg/kg, pretreatment time 120 minutes): 93.6%
Oc1cccc(Nc2ncc(F)c(Nc3cccc(O)c3)n2)c1 [Compound R921218]	inhibit FcγRI-mediated degranulation		3240					IC50 [6, 12]: 133 nM
Fc1cnc(Nc2ccc3c(c2)OCCO3)nc1Nc1ccc2c(c1)OCCO2 [Compound R926109]								IC50 [7, 13]: 5500 nM; IC50 [6, 12]: 600 nM
COc1ccc(Nc2ncc(F)c(Nc3ccc(OC)c(OC)c3)n2)cc1OC [Compound R926110]								IC50 [7, 13]: > 10000 nM; IC50 [6, 12]: 1000 nM
CC1(C)Oc2ccc(Nc3ncc(F)c(Nc4ccc5c(c4)NC(=O)C(C)(C)O5)n3)cc2NC1=O [Compound R940350]	inhibit FcγRI-mediated degranulation		2990		501	121	−15.6 ± 27.2	Plasma Concentration ± SEM (ng/ml) Exposure = Pretreatment Time + 4 hours [2, 15]: 176 ± 58 ng/mL; Plasma Concentration ± SEM (ng/ml) Exposure = Pretreatment Time + 4 hours [2, 16]: 129 ± 55 ng/mL; % inhibition to vehicle control Edema Size ± SEM [2, 17]: 38.9 ± 24.3%; Plasma Concentration ± SEM (ng/ml) Exposure = Pretreatment Time + 4 hours [2, 18]: 96 ± 28 ng/mL
COc1ccc(Nc2ncc(F)c(Nc3cccc(O)c3)n2)cc1OC [Compound R926113]								IC50 [6, 12]: 650 nM
COc1cc(Nc2ncc(F)c(Nc3ccc4c(c3)NC(=O)C(C)(C)O4)n2)cc(OC)c1 [Compound R927050]	inhibit FcγRI-mediated degranulation	14.9 ± 20.5% and 7 ± 19%	928	600	275	114	−0.3 ± 6.6	IC50 [7, 19]: 3290 nM; IC50 [6, 20]: 103 nM; Plasma Concentration ± SEM (ng/ml) Exposure = Pretreatment Time + 4 hours [2, 15]: 619 ± 130 ng/mL; Plasma Concentration ± SEM (ng/ml) Exposure = Pretreatment Time + 4 hours [2, 16]: 837 ± 104 ng/mL and 1018 ± 189 ng/mL; % inhibition to vehicle control Edema Size ± SEM [2, 17]: 64.0 ± 8.9%; Plasma Concentration ± SEM (ng/ml) Exposure = Pretreatment Time + 4 hours [2, 18]: 557 ± 78 ng/mL
CNC(=O)COc1cccc(Nc2ncc(F)c(Nc3ccc(OC(F)(F)F)c(Cl)c3)n2)c1 [Compound R920410]	inhibit FcγRI-mediated degranulation	42.6 ± 15.1%	3360	2990	546			
OCCCn1ncc2cc(Nc3ncc(F)c(Nc4ccc(Cl)c(Cl)c4)n3)ccc21 [Compound R935391]						223		IC50 [7, 19]: > 10000 nM; IC50 [6, 20]: 250 nM
CC1(C)Oc2ccc(Nc3nc(Nc4ccc5cn[nH]c5c4)ncc3F)cc2NC1=O [Compound R940363]		67.6 ± 12.1% and 61 ± 8%				6	−16.4 ± 10.9	IC50 [7, 19]: > 10000 nM; Plasma Concentration ± SEM (ng/ml) Exposure = Pretreatment Time + 4 hours [2, 15]: 32 ± 10 ng/mL; % inhibition to vehicle control Edema Size ± SEM [2, 17]: 52.3 ± 22.7%; Plasma Concentration ± SEM (ng/ml) Exposure = Pretreatment Time + 4 hours [2, 18]: 37 ± 18 ng/mL
CNC(=O)COc1cccc(Nc2ncc(F)c(Nc3cccc(O)c3)n2)c1 [Compound R926508]			917					
CC1(C)Oc2ccc(Nc3nc(Nc4cc(Cl)cc(Cl)c4)ncc3F)cc2NC1=O [Compound R927064]			> 10000			466		IC50 [7, 19]: 7240 nM; IC50 [6, 20]: 5 nM
CNC(=O)COc1cccc(Nc2ncc(F)c(Nc3ccc4c(n3)NC(=O)C(C)(C)O4)n2)c1 [Compound R940347]	inhibit FcγRI-mediated degranulation	48.2 ± 5.7% and 48%	1890	99.2	212		36.7 ± 22.4	inhibition of edema ([2]; 100 mg/kg, 2 hours prior to challenge): 89%; % inhibition to vehicle control Edema Size ± SEM [2, 17]: 88.9 ± 9.1% and 89%
CNC(=O)COc1cccc(Nc2ncc(F)c(Nc3ccc4c(n3)NC(=O)CO4)n2)c1 [Compound R921304]			2770	1500	366			
CNC(=O)COc1cccc(Nc2ncc(F)c(Nc3ccc4c(c3)NCCO4)n2)c1 [Compound R921219]			546			41		
Nc1cccc(Nc2ncc(F)c(Nc3cccc(N)c3)n2)c1 [Compound R921302]	inhibit FcγRI-mediated degranulation	82.1 ± 10.9% and 92.3 ± 4.2% and 93.2%	5180	1630	245		89.44 ± 4.8	inhibition of edema formation ([2]; 50 mg/kg, 60 minutes prior to Ab/Ag challenge): 49.9%; % inhibition to vehicle control Edema Size ± SEM [2, 8]: 50.0 ± 6.4% and 49.9%; inhibition of edema (therapeutic) ([2]; 100 mg/kg, 30 minutes post-challenge): 77.5%; inhibition of edema formation ([2]; 100 mg/kg, 60 minutes prior to Ab/Ag challenge): 93.2%; inhibition of edema formation [2, 10]: 99.1%; % inhibition to vehicle control Edema Size ± SEM [2, 11]: 99.1 ± 0.9% and 99.1%

Reference: patent US8158621B2, “Methods of treating or preventing autoimmune diseases with 2,4-pyrimidinediamine compounds” (Rigel Pharmaceuticals, Inc., priority 2002, dated 2012)
